From patent US12054487B2, “Muscarinic acetylcholine M1 receptor antagonists” (Contineum Therapeutics, Inc., priority 2018, dated 2024)

Assays:
Format in all cases: cell-based
human M1 receptor = target: T1, human M1 receptor (Homo sapiens, UniProt P11229); experiment: In vitro functional assay of muscarinic acetylcholine receptor activity (aequorin calcium flux, antagonist mode vs EC80 acetylcholine), M1; conditions: CHO-K1 cells stably expressing human M1 receptor with Aequorin; decrease in EC80 acetylcholine response
T1 construct: host or cells: CHO-K1
T1 sequence (P11229 1-460): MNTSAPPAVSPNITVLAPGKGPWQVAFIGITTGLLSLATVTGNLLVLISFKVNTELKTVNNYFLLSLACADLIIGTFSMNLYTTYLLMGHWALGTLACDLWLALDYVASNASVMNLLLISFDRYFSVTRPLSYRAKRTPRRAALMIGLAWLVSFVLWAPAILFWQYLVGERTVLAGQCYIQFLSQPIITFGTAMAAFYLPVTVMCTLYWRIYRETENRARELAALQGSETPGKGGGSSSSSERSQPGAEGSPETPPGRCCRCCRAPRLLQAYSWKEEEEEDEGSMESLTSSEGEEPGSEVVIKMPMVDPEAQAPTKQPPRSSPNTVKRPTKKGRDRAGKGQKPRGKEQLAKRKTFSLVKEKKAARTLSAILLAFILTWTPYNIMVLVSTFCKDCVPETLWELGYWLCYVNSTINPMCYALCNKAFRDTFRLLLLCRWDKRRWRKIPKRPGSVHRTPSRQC
Experimental: (§1) CHO-K1 cells stably expressing human M1 receptor with Aequorin (Perkin Elmer) were grown in F12 media, 10% FBS with 0.4 mg/mL geneticin and […]. Cells were grown to confluence and frozen down to be assayed at a later date. On the day of the experiment cells were thawed in a 37° C. water bath, resuspended in DMEM/HAM's F12 with HEPES (Invitrogen)+0.1% protease-free BSA (assay buffer), and spun down to remove freezing media. After centrifugation, supernatant was removed and 12 mL of assay buffer was added. Coelenterazine h (Promega) was added to the cells at a final concentration of 5 uM and incubated for 4 hours at room temperature in the dark. Compound master plate-96 deep well (Corning) were formatted in a 8-point DRC in assay buffer with 0.2% DMSO at a starting concentration of 60 uM (2×). After 4 hours of incubation, cells were plated at a concentration of 5×10^5 cells/well in 96 well white-walled, tissue culture-treated, clear-bottom plates (VWR). Compounds were added to the daughter plate, and cells plus compound were incubated at room temperature for 30 minutes in the dark.
(§2) Calcium flux was measured using the FlexStation 3 (Molecular Devices). To measure the antagonist dose-response, the EC80 of Acetylcholine was injected to the daughter plate using the automated compound transfer function of the Flex Station, and the increase in luminescence was measured over time. Antagonist activity was analyzed as a concentration dependent decrease in the EC80 acetylcholine response. Dose response curves were generated using Prism (GraphPad Software). The IC50 of the compounds was calculated from the dose response curve.

M3 = M3 (Homo sapiens, UniProt P20309); experiment: In vitro functional assay of muscarinic acetylcholine receptor activity, M3; conditions: antagonist activity; M3 method not separately described
Chain of M3 (P20309 whole entry): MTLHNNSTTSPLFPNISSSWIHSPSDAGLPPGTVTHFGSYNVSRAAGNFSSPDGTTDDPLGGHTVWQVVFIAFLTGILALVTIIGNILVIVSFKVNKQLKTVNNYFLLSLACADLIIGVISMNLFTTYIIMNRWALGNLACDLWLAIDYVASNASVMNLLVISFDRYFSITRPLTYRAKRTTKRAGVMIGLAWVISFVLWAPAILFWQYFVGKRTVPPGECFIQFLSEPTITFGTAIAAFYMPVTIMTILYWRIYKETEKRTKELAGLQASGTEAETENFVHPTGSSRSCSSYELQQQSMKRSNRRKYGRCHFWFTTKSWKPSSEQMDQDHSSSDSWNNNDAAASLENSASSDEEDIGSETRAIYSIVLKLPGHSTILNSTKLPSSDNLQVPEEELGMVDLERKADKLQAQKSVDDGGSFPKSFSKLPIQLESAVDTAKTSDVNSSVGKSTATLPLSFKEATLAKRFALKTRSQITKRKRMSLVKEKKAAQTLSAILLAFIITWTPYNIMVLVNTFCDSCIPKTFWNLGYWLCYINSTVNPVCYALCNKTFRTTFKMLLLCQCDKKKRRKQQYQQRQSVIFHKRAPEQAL
Experimental: [The procedure below names another target; the source lists this target under the same test.] as §1, §2

M2 = target: T2, M2 (Homo sapiens, UniProt P08172); experiment: In vitro functional assay of muscarinic acetylcholine receptor activity, M2; conditions: antagonist activity; M2 method not separately described
T2 sequence (P08172 1-466): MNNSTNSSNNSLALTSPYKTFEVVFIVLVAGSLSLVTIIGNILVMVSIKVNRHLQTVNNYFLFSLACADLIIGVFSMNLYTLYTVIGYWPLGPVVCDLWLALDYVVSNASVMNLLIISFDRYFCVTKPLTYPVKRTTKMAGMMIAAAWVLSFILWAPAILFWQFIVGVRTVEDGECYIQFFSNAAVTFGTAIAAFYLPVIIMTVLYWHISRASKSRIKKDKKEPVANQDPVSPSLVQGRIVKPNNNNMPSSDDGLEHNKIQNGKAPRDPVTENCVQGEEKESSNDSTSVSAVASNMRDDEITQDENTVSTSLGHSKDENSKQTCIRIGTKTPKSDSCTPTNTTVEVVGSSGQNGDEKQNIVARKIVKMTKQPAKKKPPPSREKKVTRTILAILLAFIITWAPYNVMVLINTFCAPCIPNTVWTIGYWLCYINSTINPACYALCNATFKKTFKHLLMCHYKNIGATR
Experimental: [The procedure below names another target; the source lists this target under the same test.] as §1, §2

IC50 (human M1 receptor) [µM]	IC50 (M3) [µM]	IC50 (M2) [µM]	Structure (SMILES)
< 0.1	1 to 10	1 to 10	Cc1nc2cccc(CCC[C@H]3C[C@H]4CN(c5ccc(C#N)cn5)CCN4C3=O)c2o1 [Example 21, 6-((7S,8aS)-7-(3-(2-methylbenzo[d]oxazol-7-yl)propyl)-6-oxohexahydropyrrolo[1,2-a]pyrazin-2(1H)-yl)nicotinonitrile]
< 0.1	1 to 10	1 to 10	Cc1ccc(N2CCN3C(=O)[C@@H](CCCc4cccc5ncnn45)C[C@H]3C2)nn1 [Example 48, (7S,8aS)-7-(3-([1,2,4]triazolo[1,5-a]pyridin-5-yl)propyl)-2-(6-methylpyridazin-3-yl)hexahydropyrrolo[1,2-a]pyrazin-6(2H)-one]
0.1 to 1	1 to 10	1 to 10	Cn1ncc2cccc(CCC[C@H]3C[C@H]4CN(c5ccc(C#N)cn5)CCN4C3=O)c21 [Example 55, 6-((7S,8aS)-7-(3-(1-methyl-1H-indazol-7-yl)propyl)-6-oxohexahydropyrrolo[1,2-a]pyrazin-2(1H)-yl)nicotinonitrile]
< 0.1	1 to 10	0.1 to 1	N#Cc1ccc(N2CCN3C(=O)[C@@H](CCCc4cccc5ncccc45)C[C@H]3C2)nc1 [Example 59, 6-((7S,8aS)-6-oxo-7-(3-(quinolin-5-yl)propyl)hexahydropyrrolo[1,2-a]pyrazin-2(1H)-yl)nicotinonitrile]
1 to 10	> 10	> 10	COc1ccc(N2CCN3C(=O)[C@@H](CCCc4cccc5ncnn45)C[C@H]3C2)cn1 [Example 38, (7S,8aS)-7-(3-([1,2,4]triazolo[1,5-a]pyridin-5-yl)propyl)-2-(6-methoxypyridin-3-yl)hexahydropyrrolo[1,2-a]pyrazin-6(2H)-one]
0.1 to 1	> 10	1 to 10	Cc1cnc(N2CCN3C(=O)[C@@H](CCCc4cccn5ncnc45)C[C@H]3C2)nc1 [Example 65, (7S,8aS)-7-(3-([1,2,4]triazolo[1,5-a]pyridin-8-yl)propyl)-2-(5-methylpyrimidin-2-yl)hexahydropyrrolo[1,2-a]pyrazin-6(2H)-one]
< 0.1	1 to 10	1 to 10	O=C1C(CCCc2c(F)ccc3nccn23)C[C@H]2CN(c3ccc(F)cn3)CCN12 (stereo partly drawn) [Example 89, (8aS)-7-(3-(6-fluoroimidazo[1,2-a]pyridin-5-yl)propyl)-2-(5-fluoropyridin-2-yl)hexahydropyrrolo[1,2-a]pyrazin-6(2H)-one]
< 0.1	1 to 10	1 to 10	COc1cc(N2CCN3C(=O)[C@@H](CCCc4cccc5ncnn45)C[C@H]3C2)ccn1 [Example 37, (7S,8aS)-2-(2-methoxypyridin-4-yl)-7-(3-{[1,2,4]triazolo[1,5-a]pyridin-5-yl}propyl)-octahydropyrrolo[1,2-a]pyrazin-6-one]
1 to 10	> 10	1 to 10	O=C1[C@@H](CCCc2cccc3ncsc23)C[C@@H]2CN(c3ccncc3F)CCN12 [Example 7, (7S,8aR)-7-(3-(benzo[d]thiazol-7-yl)propyl)-2-(3-fluoropyridin-4-yl)hexahydropyrrolo[1,2-a]pyrazin-6(2H)-one]
1 to 10	> 10	1 to 10	O=C1C(CCCc2cccc3ncnn23)C[C@H]2CN(c3cncc(Cl)c3)CCN12 (mixture of isomers) [Example 44, (8aS)-7-(3-([1,2,4]triazolo[1,5-a]pyridin-5-yl)propyl)-2-(5-chloropyridin-3-yl)hexahydropyrrolo[1,2-a]pyrazin-6(2H)-one]
< 0.1	0.1 to 1	1 to 10	N#Cc1ccc(N2CCN3C(=O)[C@@H](CCCc4cccc(F)c4C4CC4)C[C@H]3C2)nc1 [Example 25, 6-((7S,8aS)-7-(3-(2-cyclopropyl-3-fluorophenyl)propyl)-6-oxohexahydropyrrolo[1,2-a]pyrazin-2(1H)-yl)nicotinonitrile]
1 to 10	> 10	1 to 10	N#Cc1ccc(N2CCN3C(=O)[C@@H](CCCc4cccc5c4CCC5)C[C@H]3C2)nc1 [Example 18, 6-((7S,8aS)-7-(3-(2,3-dihydro-1H-inden-4-yl)propyl)-6-oxohexahydropyrrolo[1,2-a]pyrazin-2(1H)-yl)nicotinonitrile]
< 0.1	0.1 to 1	0.1 to 1	CS(=O)(=O)c1ccc(N2CCN3C(=O)[C@@H](CCCc4cccc5ncsc45)C[C@H]3C2)nc1 [Example 13, (7S,8aS)-7-(3-(benzo[d]thiazol-7-yl)propyl)-2-(5-(methylsulfonyl)pyridin-2-yl)hexahydropyrrolo[1,2-a]pyrazin-6(2H)-one]
< 0.1	1 to 10	> 10	O=C1[C@@H](CCCc2cccc3nccnc23)C[C@H]2CN(c3ccc(F)cn3)CCN12 [Example 93, (7S,8aS)-2-(5-fluoropyridin-2-yl)-7-(3-(quinoxalin-5-yl)propyl)hexahydropyrrolo[1,2-a]pyrazin-6(2H)-one]
> 10	> 10	1 to 10	Cc1cc(N2CCN3C(=O)C(CCCc4cccc5ncnn45)C[C@H]3C2)ncc1F (mixture of isomers) [Example 42, (7S,8aS)-7-(3-([1,2,4]triazolo[1,5-a]pyridin-5-yl)propyl)-2-(5-fluoro-4-methylpyridin-2-yl)hexahydropyrrolo[1,2-a]pyrazin-6(2H)-one]
< 0.1	< 0.1	0.1 to 1	N#Cc1ccc(N2CCN3C(=O)[C@@H](CCCc4cccn5ncnc45)C[C@H]3C2)cn1 [Example 67, 5-((7S,8aS)-7-(3-([1,2,4]triazolo[1,5-a]pyridin-8-yl)propyl)-6-oxohexahydropyrrolo[1,2-a]pyrazin-2(1H)-yl)picolinonitrile]
0.1 to 1	1 to 10	1 to 10	O=C1[C@@H](CCCc2cccc3ncsc23)C[C@H]2CN(c3ccnc(Cl)c3)CCN12 [Example 12]
< 0.1	0.1 to 1	0.1 to 1	N#Cc1ccc(N2CCN3C(=O)[C@@H](CCCc4cccc5ncnn45)C[C@H]3C2)nc1 [Example 4, 6-((7S,8aS)-7-(3-([1,2,4]triazolo [1,5-a]pyridin-5-yl)propyl)-6-oxohexahydropyrrolo [1,2-a]pyrazin-2(1H)-yl)nicotinonitrile]
< 0.1	1 to 10	1 to 10	O=C1[C@@H](CCCc2cccc3ncsc23)C[C@H]2CN(c3ccncc3F)CCN12 [Example 2, (7S,8a5)-7-(3-(benzo [d]thiazol-7-yl)propyl)-2-(3-fluoropyridin-4-yl)hexahydropyrrolo[1,2-a]pyrazin-6(2H)-one]
< 0.1	0.1 to 1	0.1 to 1	N#Cc1ccc(N2CCN3C(=O)[C@@H](CCCc4cccnn4)C[C@H]3C2)nc1 [Example 56, 6-((7S,8aS)-6-oxo-7-(3-(pyridazin-3-yl)propyl)hexahydropyrrolo[1,2-a]pyrazin-2(1H)-yl)nicotinonitrile]
< 0.1	1 to 10	0.1 to 1	N#Cc1ccc(N2CCN3C(=O)[C@@H](CCCc4cccc5ncoc45)C[C@H]3C2)nc1 [Example 22, 6-((7S,8aS)-7-(3-(benzo[d]oxazol-7-yl)propyl)-6-oxohexahydropyrrolo[1,2-a]pyrazin-2(1H)-yl)nicotinonitrile]
